Laboratory results: patent US12029715B2, “Precursor compounds for providing retinoids of the vitamin A5 pathway and uses thereof” (UNIVERSITY OF DEBRECEN, priority 2015, dated 2024)
Entries after “also recorded” stand apart in the source; their conditions may differ.

Assays:
[1] = tested on: differentiating monocyte-derived human dendritic cells; assay: DNA microarray in differentiating monocyte-derived dendritic cells; assay type: cell-based
Procedure: The generation and transcriptional analysis of differentiating DCs were performed as described previously [Szeles L et al. 2010]. Microarray data were deposited into the Gene Expression Omnibus database under accession no. GSE48573.
The generation and analysis of differentiating DCs were performed as described previously [Szeles L et al. 2010] with minor modifications. Briefly, human monocytes were isolated from healthy volunteer's buffy coat, obtained with a Regional Ethical Board permit from the Regional Blood Bank and isolated by Ficoll gradient centrifugation followed by immunomagnetic cell separation, and were cultured in the presence of GM-CSF and IL-4. Differentiating DCs were stimulated 18 h after […] by various agonists for 12 h. The ligands were used in the following concentrations: 10 μM (R)-9CDHRA, 10 μM (S)-9CDHRA, 1 μM 9cisRA, 100 nM LG100268, 1 μM GW3965, 1 μM Rosiglitazone (RSG), 1 μM GW1516, 100 nM AM580. Experiments were performed in biological triplicates. Samples were processed and hybridized to Human Genome U133 Plus 2.0 Arrays. Data were analysed using to GeneSpring 12.6.1 software. In detail, normalization was performed using RMA summarization algorithm. […] Microarray data were deposited into the Gene Expression Omnibus database under accession no. GSE48573.

[2] = Mouse oral supplementation, retinoid levels in serum, brain and liver (LC-MS); assay type: in vivo; settings: mice, per os 40 mg/kg, 11 h after treatment
Procedure: For metabolic analyses ATROL, 9CDHROL, 9CDHBC and control solutions were prepared as described above. Single per os application of the dose of 40 mg/kg of each substance was used to treat mice in the evening and samples were collected 11 h later in the light protected conditions, weighted, frozen in liquid nitrogen and stored at −80° C. until analyses. Serum was prepared and immediately stored in brown vials at −80° C., till further analysis.
Accordingly, for sample preparation 100 mg of the material (if samples were under 100 mg, water was added up to the used standard weight: 100 mg) or 100 μl serum was diluted with a threefold volume of isopropanol, the tissues were minced by scissors, vortexed for 10 seconds, put in a ultrasonic bath for 5 minutes, shaken for 6 minutes and centrifuged at 13000 rpm in a Heraeus BIOFUGE Fresco at +4° C. […] The dried extracts were resuspended with 30 μl of methanol—MTBE (50-50) and transferred into the autosampler and 10 μl subsequently analysed.
Mouse brain samples were prepared according to the procedure described above. Briefly, after single per os application of the dose of 40 mg/kg of 9CDHROL (or other cited substances) in the evening mice were sacrificed after 11 hours and tissues samples including brain were dissected under light-protection conditions, weighted, frozen in liquid nitrogen and stored at −80° C. until analyses. Serum was prepared and immediately stored in brown vials at −80° C., till further analysis.
For mouse supplementation experiments we treated n=6 mice per os with 40 mg/kg bw 9CDHROL and 11 h after the treatment the mice were killed and blood, brain and liver was taken. After centrifugation of the drawn blood, serum was obtained.

[3] = target: T1, hRXRα LBD (Homo sapiens, UniProt P19793); assay: ESI-MS in non-denaturing conditions, binding to RXR LBD; set-up: cDNAs encoding hRXRα LBD (223-462); His-tag (N); made in house; settings: titration monitored by ESI-MS
T1 sequence (P19793 223-462): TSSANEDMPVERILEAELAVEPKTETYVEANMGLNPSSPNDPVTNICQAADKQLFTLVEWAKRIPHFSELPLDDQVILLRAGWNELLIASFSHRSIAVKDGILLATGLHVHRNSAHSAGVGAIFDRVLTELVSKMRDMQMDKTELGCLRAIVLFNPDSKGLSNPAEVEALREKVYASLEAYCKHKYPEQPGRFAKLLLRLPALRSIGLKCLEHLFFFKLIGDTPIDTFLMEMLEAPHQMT
Procedure: (§1) cDNAs encoding hRXRα LBD (223-462), hRARα LBD (153-421), hRARBβ LBD (169-414) and hRARγ LBD (178-423) were cloned into pET28b vector to generate N-terminal Histag fusion proteins. Purification was carried out as previously described [Lippert W P et al. 2009, Osz J, et al. 2012], including a metal affinity chromatography and a gel filtration. For details of sample preparation and ESI-MS analyses see below.
cDNAs encoding hRXRαLBD (223-462), hRARαLBD (153-421), hRARβLBD (169-414) and hRARγ LBD (178-423) were cloned into pET28b vector to generate N-terminal His-tag fusion proteins. Purification was carried out as previously described [Lippert W P et al. 2009, Osz J, et al. 2012], including a metal affinity chromatography and a gel filtration. Prior to ESI-MS analysis, samples were desalted on Zeba Spin desalting columns (Pierce) in 150 mM ammonium acetate (pH 8.0). ESI-MS measurements were performed on an electrospray time-of-flight mass spectrometer (MicrOTOF, Bruker Daltonics). Purity and homogeneity of the proteins were verified by mass spectrometry in denaturing conditions (samples were diluted at 2 pmol/μl in a 1:1 water-acetonitrile mixture (v/v) acidified with 1% formic acid). The mass measurements of the noncovalent complexes were performed in ammonium acetate (200 mM; pH 8.0). Samples were diluted to 8 pmol/ml in the previous buffer and continuously infused into the ESI ion source at a flow rate of […] through a Harvard syringe pump (Harvard Apparatus model 11). A careful optimization of the interface parameters was performed to obtain the best sensitivity and spectrum quality without affecting the noncovalent complexes stability. In particular, the capillary exit (CE) ranged from 60 to 150 V with a vacuum interface pressure of 2.3 mbar and was set to 80 V. For ligand-interaction analysis, ligands were added to the proteins in a 5-fold molar excess.

[4] = tested on: hRARα, β and γ LBDs; assay: ESI-MS in non-denaturing conditions, binding to RAR LBD isotypes; set-up: species or system human; settings: 5-fold molar excess of ligand
Procedure: as §1
cDNAs encoding hRXRαLBD (223-462), hRARαLBD (153-421), hRARβLBD (169-414) and hRARγ LBD (178-423) were cloned into pET28b vector to generate N-terminal His-tag fusion proteins. Purification was carried out as previously described [Lippert W P et al. 2009, Osz J, et al. 2012], including a metal affinity chromatography and a gel filtration. Prior to ESI-MS analysis, samples were desalted on Zeba Spin desalting columns (Pierce) in 150 mM ammonium acetate (pH 8.0). ESI-MS measurements were performed on an electrospray time-of-flight mass spectrometer (MicrOTOF, Bruker Daltonics). Purity and homogeneity of the proteins were verified by mass spectrometry in denaturing conditions (samples were diluted at 2 pmol/μl in a 1:1 water-acetonitrile mixture (v/v) acidified with 1% formic acid). The mass measurements of the noncovalent complexes were performed in ammonium acetate (200 mM; pH 8.0). […]

[5] = tested on: Rbp1−/− and Rxrγ−/− mice; assay: Y-maze spontaneous alternation; assay type: in vivo, mouse; settings: 5-6 hours prior to testing
Procedure: The Y-maze apparatus and the procedure were as previously described (Wietrzych et al., 2005). Briefly, each mouse was placed at the end of one arm and allowed to explore freely the apparatus for 5 min, with the experimenter out of the animal's sight. Spontaneous alternation performance (SAP) was assessed visually by scoring the pattern of entries into each arm and expressed as a percentage of total number of entries, discounting the first two visits. Total entries were scored as an index of ambulatory activity in the Y-maze, but none of tested mice had to be excluded due to low locomotor performance (score below 9 entries).
Vehicle treatments consisted of 3% ethanol and 3% DMSO solution in sunflower oil. Treatments were administered by intraperitoneal injections at volume/weight ratio 3 ml/kg between 8-10 am and 5-6 h before the test as previously validated (Wietrzych-Schindler M, 2011).

SMILES: CC(C=CC1=C(C)CCCC1(C)C)=CC=CC(C)CC(=O)O (stereo not drawn) [9CDHRA, 9-cis-13,14-dihydroretinoic acid]
- expression of genes induced by AM580 (RAR-RXR target genes) [1]: also induced
- transcripts regulated by LG268 (RXR-specific agonist) also regulated ([1]; 72 LG268 transcriptional targets): 68 out of 72

SMILES: CC1=C(/C=C/C(C)=C\C=C\C(C)CCO)C(C)(C)CCC1 (stereo not drawn) [9CDHROL, 9-cis-13,14-dihydroretinol]
- 9CDHRA levels in serum, brain and liver after treatment (conversion to 9CDHRA) [2]: strong increase; also recorded: strongly increased; also recorded: best conversion
- 9CDHROL levels in serum, brain and liver after treatment [2]: strongly increased; also recorded: strong and significantly increased levels

SMILES: CC1=C(/C=C/C(C)=C\C=C\[C@H](C)CC(=O)O)C(C)(C)CCC1 [(R)-9CDHRA, (9Z,13R)-13,14-Dihydroretinoic Acid]
- higher affinity than (S)-9CDHRA for RXR LBD (peak amplitude) [3]: about 65%
- lower affinity than 9CRA for RXR LBD (peak amplitude) [3]: approximately 30%
- binding to RAR LBD isotypes in ESI-MS [4]: bind to all RAR LBD isotypes
- overlap in transcriptional changes with 9CRA [1]: about 80%
- share of all transcripts regulated by 9CRA that are similarly regulated by (R)-9CDHRA [1]: 85%
- transcripts similarly regulated by both (R)-9CDHRA and 9CRA ([1]; 10 μM (R)-9CDHRA, 1 μM 9CRA): 384
- number of transcripts regulated ([1]; 10 μM (R)-9CDHRA, 1 μM 9CRA, 12 h, FC>2): 518
- expression of genes that are direct targets of RXR permissive heterodimers (LXR-RXR, PPAR-RXR) and RAR-RXR ([1]; 9CDHRA 10 μM, 9CRA 1 μM, LG268 100 nM, GW3965 1 μM, RSG 1 μM, GW1516 1 μM, AM580 100 nM): induced the expression of genes; also recorded: induce the expression of many genes

SMILES: CC1(C)CCC(C)(C)c2cc(C3(c4ccc(C(=O)O)cc4)OCCO3)ccc21 [UVI2108, reference compound]
- working memory in spontaneous alternation in the Y-maze ([5]; Rbp1−/− mice, ATRA 5 mg/kg, UVI2108 1 mg/kg, MA 5 mg/kg, DHA 1 mg/kg, TTNPB 5 mg/kg): normalised; also recorded: pro-mnemonic effects
- working memory in spontaneous alternation in the Y-maze ([5]; Rxrγ−/− mice, same doses): not
